Laboratory results reported in patent EP1191024A1, “Thiadiazines and their use as inhibitors of metalloproteinases” (Tschesche, Harald, priority 2000, dated 2002).
Like-named read-outs stand apart in the source and are kept apart here.

How the values were obtained:
Assay in all cases: MMP microfluorometric profiling assay (fluorogenic Mca-peptide substrate)
Type in all cases: biochemical
cdMMP-14 = molecular target: T1, cdMMP-14 (Homo sapiens, UniProt P50281)
T1 construct: made in house; host or cells: E. coli
Description: (§1) The tested MMP enzymes were prepared more specifically in the laboratories of the applicants, with the exception of MMP-1. MMP-1 from human rheumatoid synovial fibroblasts was purchased from Calbiochem-Novabiochem Corporation, LaJolla. Preparation of the recombinant catalytic domain of human Gelatinase A (cdMMP-2): The catalytic domain of Pro-Gelatinase A was prepared using an E. coli expression system according to the method described by Kröger et al^[19]. The proenzyme was activated with 0.5 mM APMA at 37°C prior to use in the assay. Preparation of the recombinant catalytic domain of human neutrophile Collagenase (cdMMP-8^Met80): The enzyme was expressed in E. coli as an active variant by the method of Kleine et al^[20]. Preparation of PMNL-Gelatinase (MMP-9): Latent PMNL-pro-Gelatinase was prepared from human plasma buffy coat as described by Tschesche et al^[21]. PMNL-pro-Gelatinase was activated prior to use by incubation with Trypsin at 37°C for 10 min. Inactivation of Trypsin was accomplished with TKI. Preparation of the recombinant catalytic domain of human Macrophage Elastase (cdMMP-12): The catalytic domain of MMP-12 was expressed in E. coli. The overexpressed protein was isolated as inclusion bodies and the renatured protein was purified by affinity chromatography with a hydroxamate inhibitor coupled column as described^[22]. Preparation of the recombinant catalytic domain of human Collagenase-3 (cdMMP-13): Human pro-cdMMP-13 was prepared using an E. coli expression system according to the method described^[23]. The isolated pro-cdMMP-13 was activated prior to use by incubation with 5 mM HgCl2 for 2 h at 37°C. Preparation of the recombinant catalytic domain of Membrane-Type-1 MMP (cdMMP-14): The catalytic domain of MMP-14 was expressed in E. coli and was activated by autocatalysis^[24]. Preparation of the recombinant human ectodomain of Membrane-Type-1 MMP (ΔTM-MMP-14): The ectodomain of MMP-14 was expressed in Pichia Pastoris by the method of Roderfeld et al. and activated by yeast proteases (Furin-like-proteases) during maturation^[25].
(§2) The enzymatic activity was measured using a modified version of a resonance energy transfer fluorogenic assay as described^[26]. Progress curves were monitored by following the increase in fluorescence at 393 nm (λex = 328 nm), induced by the cleavage of the (7-methoxycoumarin-4-yl)acetyl-Pro-Leu-Gly-Leu-(3-[2,4-dinitro-phenyl]-L-2,3-diamino-propionyl)-Ala-Arg-NH2 (Mca-Pro-Leu-Gly-Leu-Dpa-Ala-Arg-NH2) fluorogenic substrate by MMPs. The fluorescent MCA-group is quenched by resonance energy transfer to the 2,4-dinitrophenyl group. Matrix metalloproteinases cleave this substrate at the Gly-Leu bond. Cleavage results in the loss of energy transfer and a large increase in fluorescence of the MCA group. This substrate is commercially available from Bachem, Switzerland.
(§3) Enzyme inhibition assays were carried out in MRB which consisted of 50 mM HEPES/NaOH, pH 7.0, 10 mM CaCl2 and 0,02% (w/v) PEG 8000 at 25°C. MMP microfluorometric profiling assay was done in white U-bottomed 96-well plates (Microfluor 1 White, Dynex, USA) with a final substrate concentration of 6 µM MCA-peptide, approximately 0.3 to 5 nM MMP with variable inhibitor concentrations and 2% DMSO vehicle. From a 1.5 mM stock (100% DMSO) the inhibitors were serially diluted with MRB to 15, 10, 5, 3, 1, 0.6, 0.3, 0.1, 0.05, 0.01 and 0.005 µM final assay concentration. Column 1, rows A through H, contained only DMSO for the "enzyme-only" wells in the assay. After preincubation for 30 min at 25°C the reaction was started by addition of substrate and the plate was read on a SpectraFluor Plus (Tecan, Germany) plate reader with excitation at 330 nm and emission at 405 nm with the gain set to 150. Each measurement was done in triplicate to ensure statistically significant results. […]

cdMMP-13 = cdMMP-13 (Homo sapiens, UniProt P45452); conditions: for percent inhibition: cdMMP-13, @ 15 (µM)
Description: as §1, §2, §3

cdMMP-2 = cdMMP-2 (Homo sapiens, UniProt P08253); conditions: for IC50: read-out: cdMMP-2 IC50; for percent inhibition: cdMMP-2, @ 15 (µM)
Description: The tested MMP enzymes were prepared more specifically in the laboratories of the applicants, with the exception of MMP-1. MMP-1 from human rheumatoid synovial fibroblasts was purchased from Calbiochem-Novabiochem Corporation, LaJolla. Preparation of the recombinant catalytic domain of human Gelatinase A (cdMMP-2): The catalytic domain of Pro-Gelatinase A was prepared using an E. coli expression system according to the method described by Kröger et al^[19]. The proenzyme was activated with 0.5 mM APMA at 37°C prior to use in the assay. […] Preparation of PMNL-Gelatinase (MMP-9): Latent PMNL-pro-Gelatinase was prepared from human plasma buffy coat as described by Tschesche et al^[21]. PMNL-pro-Gelatinase was activated prior to use by incubation with Trypsin at 37°C for 10 min. Inactivation of Trypsin was accomplished with TKI. […] The overexpressed protein was isolated as inclusion bodies and the renatured protein was purified by affinity chromatography with a hydroxamate inhibitor coupled column as described^[22]. Preparation of the recombinant catalytic domain of human Collagenase-3 (cdMMP-13): Human pro-cdMMP-13 was prepared using an E. coli expression system according to the method described^[23]. The isolated pro-cdMMP-13 was activated prior to use by incubation with 5 mM HgCl2 for 2 h at 37°C.
as §2
Enzyme inhibition assays were carried out in MRB which consisted of 50 mM HEPES/NaOH, pH 7.0, 10 mM CaCl2 and 0,02% (w/v) PEG 8000 at 25°C. MMP microfluorometric profiling assay was done in white U-bottomed 96-well plates (Microfluor 1 White, Dynex, USA) with a final substrate concentration of 6 µM MCA-peptide, approximately 0.3 to 5 nM MMP with variable inhibitor concentrations and 2% DMSO vehicle. From a 1.5 mM stock (100% DMSO) the inhibitors were serially diluted with MRB to 15, 10, 5, 3, 1, 0.6, 0.3, 0.1, 0.05, 0.01 and 0.005 µM final assay concentration. Column 1, rows A through H, contained only DMSO for the "enzyme-only" wells in the assay. After preincubation for 30 min at 25°C the reaction was started by addition of substrate and the plate was read on a SpectraFluor Plus (Tecan, Germany) plate reader with excitation at 330 nm and emission at 405 nm with the gain set to 150. Each measurement was done in triplicate to ensure statistically significant results. The experiment was further controlled for background fluorescence of the substrate, for fluorescence of fully cleaved substrate and for fluorescence quenching or augmentation from solutions containing the test compounds.
Datapoints from eight different MMPs generated on the SpectraFluor Plus were directly visualized on a master Excel spreadsheet. The response of inhibition was determinated for each inhibitor concentration by comparing the amount of hydrolysis (fluorescence units generated over 30 minutes of hydrolysis) of wells containing compound with the "enzyme-only" wells in column 1. With the program GraFit (Erithacus Software Limited) a 4 parameter logistic fit to the dose-response data was used to calculate IC50 values for each compound.

cdMMP-2, sequence (P08253 110-446): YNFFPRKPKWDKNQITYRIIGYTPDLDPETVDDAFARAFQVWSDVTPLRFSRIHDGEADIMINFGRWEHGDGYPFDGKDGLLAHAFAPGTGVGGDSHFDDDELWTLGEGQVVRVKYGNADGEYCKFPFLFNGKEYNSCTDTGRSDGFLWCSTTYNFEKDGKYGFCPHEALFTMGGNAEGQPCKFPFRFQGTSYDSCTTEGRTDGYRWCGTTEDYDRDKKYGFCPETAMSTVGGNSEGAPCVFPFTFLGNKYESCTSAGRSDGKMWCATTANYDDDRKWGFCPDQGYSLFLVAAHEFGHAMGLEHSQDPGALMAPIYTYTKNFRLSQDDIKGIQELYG

Molecule C[C@@H](NS(=O)(=O)c1ccccc1)C(=O)NC1=NN=C(c2ccc(C#N)cc2)CS1 [Example 1, (2R)-N-[5-(4-Cyanophenyl)-6H-1,3,4-thiadiazine-2-yl]-2-[(phenylsulfonyl)amino]-propanamide] has an IC50 (cdMMP-14) of 346 nM, an IC50 (cdMMP-13; read-out: cdMMP-13 IC50) of 368 nM and an IC50 (cdMMP-2) of 353 nM.
With CC(C)[C@@H](NS(=O)(=O)c1ccccc1)C(=O)NC1=NN=C(c2ccc(Cl)cc2)CS1 [Example 2, (2R)-N-[5-(4-Chlorophenyl)-6H-1,3,4-thiadiazin-2-yl]-3-methyl-2-[(phenylsulfonyl)amino]butanamide] the IC50 (cdMMP-14) was 1110 nM, the IC50 (cdMMP-13; read-out: cdMMP-13 IC50) was greater than 15000 nM and the IC50 (cdMMP-2) was 1410 nM.
For C[C@H](NS(=O)(=O)c1ccccc1)C(=O)NC1=NN=C(c2ccc(C#N)cc2)CS1 [Example 3, (2S)-N-[5-(4-Cyanophenyl)-6H-1,3,4-thiadiazin-2-yl]-2-[(phenylsulfonyl)amino]-propanamide], the IC50 (cdMMP-14) was 459 nM, the IC50 (cdMMP-13; read-out: cdMMP-13 IC50) was 387 nM and the IC50 (cdMMP-2) was 390 nM.
Molecule C[C@H](NS(=O)(=O)c1ccccc1)C(=O)NC1=NN=C(c2ccc(C(F)(F)F)cc2)CS1 [Example 4, (2S)-2-[(Phenylsulfonyl)amino]-N-{5-[4-(trifluormethyl)phenyl]-6H-1,3,4-thiadiazin-2-yl}propanamide] has an IC50 (cdMMP-14) of 1100 nM, an IC50 (cdMMP-13) of 1030 nM and a percent inhibition (cdMMP-2) of 25%^a)@ 15.
In the case of C[C@H](NS(=O)(=O)c1ccccc1)C(=O)NC1=NN=C(c2ccc(Br)cc2)CS1 [Example 6, (2S)-N-[5-(4-Bromophenyl)-6H-1,3,4-thiadiazin-2-yl]-2-[(phenylsulfonyl)amino]-propanamide], the IC50 (cdMMP-14) is reported as 637 nM, the IC50 (cdMMP-13) is reported as 658 nM and the IC50 (cdMMP-2) is reported as 455 nM.
C[C@H](NS(=O)(=O)c1ccccc1)C(=O)NC1=NN=C(c2ccc([N+](=O)[O-])cc2)CS1 [Example 9, (2S)-N-[5-(4-Nitrophenyl)-6H-1,3,4-thiadiazin-2-yl]-2-[(phenylsulfonyl)amino]-propanamide] gave an IC50 (cdMMP-14) of 556 nM, an IC50 (cdMMP-13; read-out: cdMMP-13 IC50) of 449 nM and an IC50 (cdMMP-2) of 495 nM.
Work on C[C@H](NS(=O)(=O)c1ccccc1)C(=O)NC1=NN=C(c2ccc(Cl)s2)CS1 [Example 10, (2S)-N-[5-(5-Chloro-2-thienyl)-6H-1,3,4-thiadiazin-2-yl]-2-[(phenylsulfonyl)-amino]propanamide] yielded an IC50 (cdMMP-14) of 605 nM, an IC50 (cdMMP-13; read-out: cdMMP-13 IC50) of 853 nM and an IC50 (cdMMP-2) of 3100 nM.
Work on COc1ccc(C2=NN=C(NC(=O)[C@H](C)NS(=O)(=O)c3ccccc3)SC2)cc1 [Example 12, (2S)-N-[5-(4-Methoxyphenyl)-6H-1,3,4-thiadiazin-2-yl]-2-[(phenylsulfonyl)-amino]propanamide] yielded an IC50 (cdMMP-14) of 1120 nM and an IC50 (cdMMP-13; read-out: cdMMP-13 IC50) of 2310 nM.
With C[C@@H](NS(=O)(=O)c1ccccc1)C(=O)NC1=NN=C(c2ccc(F)cc2)CS1 [Example 14, (2R)-N-[5-(4-Fluorophenyl)-6H-1,3,4-thiadiazin-2-yl]-2-[(phenylsulfonyl)amino]-propanamide] the IC50 (cdMMP-14) was 727 nM, the IC50 (cdMMP-13; read-out: cdMMP-13 IC50) was 537 nM and the IC50 (cdMMP-2) was 572 nM.
COc1ccc(S(=O)(=O)NCC(=O)NC2=NN=C(c3c(F)c(F)c(F)c(F)c3F)CS2)cc1 [Example 16, 2-{[(4-Methoxyphenyl)sulfonyl]amino}-N-[5-(2,3,4,5,6-pentafluorophenyl)-6H-1,3,4-thiadiazin-2-yl]acetamide] showed an IC50 (cdMMP-14) of 1760 nM, an IC50 (cdMMP-13; read-out: cdMMP-13 IC50) of 1090 nM and an IC50 (cdMMP-2) of 3930 nM.
With COc1ccc(S(=O)(=O)N[C@@H](C)C(=O)NC2=NN=C(c3ccc(C)cc3)CS2)cc1 [Example 17, (2S)-2-{[(4-Methoxyphenyl)sulfonyl]amino}-N-[5-(4-methylphenyl)-6H-1,3,4-thiadiazin-2-yl]propanamide] the IC50 (cdMMP-14) was 707 nM, the IC50 (cdMMP-13; read-out: cdMMP-13 IC50) was 1110 nM and the IC50 (cdMMP-2) was 675 nM.
With CC(C)(C)c1ccc(S(=O)(=O)NCC(=O)NC2=NN=C(c3ccc(Cl)cc3Cl)CS2)cc1 [Example 18, 2-{[(4-tert-Butylphenyl)sulfonyl]amino}-N-[5-(2,4-dichlorophenyl)-6H-1,3,4-thiadiazin-2-yl]acetamide] the IC50 (cdMMP-14) was 780 nM, the IC50 (cdMMP-13; read-out: cdMMP-13 IC50) was 1410 nM and the IC50 (cdMMP-2) was 2430 nM.
For COc1ccc(S(=O)(=O)NCC(=O)NC2=NN=C(c3ccc(Cl)cc3Cl)CS2)cc1 [Example 19, N-[5-(2,4-Dichlorophenyl)-6H-1,3,4-thiadiazin-2-yl]-2-{[(4-methoxyphenyl)-sulfonyl]amino}acetamide], the IC50 (cdMMP-14) was 700 nM, the IC50 (cdMMP-13; read-out: cdMMP-13 IC50) was 605 nM and the IC50 (cdMMP-2) was 1520 nM.
Work on CC(C)[C@H](NS(=O)(=O)c1ccccc1)C(=O)NC1=NN=C(c2ccc(Cl)cc2)CS1 [Example 22, (2S)-N-[5-(4-Chlorophenyl)-6H-1,3,4-thiadiazin-2-yl]-3-methyl-2-[(phenylsulfonyl)amino]butanamide] yielded an IC50 (cdMMP-14) of 1400 nM, an IC50 (cdMMP-13; read-out: cdMMP-13 IC50) greater than 15000 nM and an IC50 (cdMMP-2) of 1460 nM.
O=C(CC1NC(=O)NC1=O)NC1=NN=C(c2ccc(Cl)cc2)CS1 (centres unmarked) [Example 23, N-[5-(4-Chlorophenyl)-6H-1,3,4-thiadiazin-2-yl]-2-(2,5-dioxo-4-imidazolidinyl)-acetamide] showed a percent inhibition (cdMMP-14; cdMMP-14, @ 15 (µM)) of 52%^a)@ 15, a percent inhibition (cdMMP-13) of 34%^a)@ 15 and a percent inhibition (cdMMP-2) of 67%^a)@ 15.
O=C(CC1NC(=O)NC1=O)NC1=NN=C(c2ccc(Br)cc2)CS1 (centres unmarked) [Example 24, N-[5-(4-Bromophenyl)-6H-1,3,4-thiadiazin-2-yl]-2-(2,5-dioxo-4-imidazolidinyl)-acetamide] gave an IC50 (cdMMP-14) of 1070 nM, a percent inhibition (cdMMP-13) of 39%^a)@ 15 and an IC50 (cdMMP-2) of 864 nM.
